In patent US20230346777A1, “USE OF SGC ACTIVATORS FOR THE TREATMENT OF OPHTHALMOLOGIC DISEASES” (Bayer Aktiengesellschaft, priority 2020, published 2023):
pEC50: −log10 of the molar value. Structures can show the parent of a compound that is named as a salt.

What was measured:
[1] = biological target: T1, recombinant guanylate cyclase reporter cell line (Rattus norvegicus, UniProt P20595); assay: Effect on a recombinant guanylate cyclase reporter cell line; assay type: cell-based
T1 construct: expressed in transfected cells; CHO by own knowledge of the cited Wunder et al. 2005
T1 sequence (P20595 1-619): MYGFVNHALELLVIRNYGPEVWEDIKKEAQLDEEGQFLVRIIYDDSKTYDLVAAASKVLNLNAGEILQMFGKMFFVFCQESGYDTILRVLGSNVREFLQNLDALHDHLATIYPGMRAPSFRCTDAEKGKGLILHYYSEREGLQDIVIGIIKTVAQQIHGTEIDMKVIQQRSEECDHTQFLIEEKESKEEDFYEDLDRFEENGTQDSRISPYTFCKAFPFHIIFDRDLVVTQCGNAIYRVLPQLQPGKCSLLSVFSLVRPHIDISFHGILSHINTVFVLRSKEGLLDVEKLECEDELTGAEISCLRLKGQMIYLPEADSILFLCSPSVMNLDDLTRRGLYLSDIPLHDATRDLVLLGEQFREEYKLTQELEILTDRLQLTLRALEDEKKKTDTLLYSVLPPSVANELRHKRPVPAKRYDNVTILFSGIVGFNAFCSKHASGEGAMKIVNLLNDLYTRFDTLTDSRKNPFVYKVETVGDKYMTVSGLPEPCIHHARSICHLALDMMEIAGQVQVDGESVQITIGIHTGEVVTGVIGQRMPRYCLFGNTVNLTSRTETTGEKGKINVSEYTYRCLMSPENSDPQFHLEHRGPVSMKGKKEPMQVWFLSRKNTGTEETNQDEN
T1 sequence (P19686 1-690 partner): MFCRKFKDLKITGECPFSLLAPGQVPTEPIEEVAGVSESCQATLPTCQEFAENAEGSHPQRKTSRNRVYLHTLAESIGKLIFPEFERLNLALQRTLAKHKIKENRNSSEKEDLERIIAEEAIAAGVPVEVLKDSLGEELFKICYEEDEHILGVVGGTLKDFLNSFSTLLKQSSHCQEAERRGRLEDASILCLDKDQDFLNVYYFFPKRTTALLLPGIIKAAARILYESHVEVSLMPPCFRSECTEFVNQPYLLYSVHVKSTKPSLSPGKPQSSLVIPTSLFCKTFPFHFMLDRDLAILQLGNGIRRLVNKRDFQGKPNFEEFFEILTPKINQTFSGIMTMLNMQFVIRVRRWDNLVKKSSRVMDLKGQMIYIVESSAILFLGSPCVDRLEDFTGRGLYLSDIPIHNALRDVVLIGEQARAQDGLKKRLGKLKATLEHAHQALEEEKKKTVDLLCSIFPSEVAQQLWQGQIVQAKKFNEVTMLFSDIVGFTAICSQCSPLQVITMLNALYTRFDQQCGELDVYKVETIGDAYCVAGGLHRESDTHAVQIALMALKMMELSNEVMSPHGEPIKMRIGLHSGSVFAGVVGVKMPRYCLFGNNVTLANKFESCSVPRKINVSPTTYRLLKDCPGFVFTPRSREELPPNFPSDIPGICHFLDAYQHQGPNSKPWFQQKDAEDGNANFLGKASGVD
Description: B-1. Effect on a Recombinant Guanylate Cyclase Reporter Cell Line
The cellular activity of the compounds according to the invention was determined using a recombinant guanylate cyclase reporter cell line, as described in F. Wunder et al., Anal. Biochem. 339, 104-112 (2005).

[2] = Pharmacokinetic parameters following intravenous and oral administration in rats; assay type: in vivo, male Wistar rats; conditions: for clearance: read-out: CLplasma (converted); for half-life: read-out: t½ (converted)
Description: (§1) B-2. Determination of Pharmacokinetic Parameters Following Intravenous and Oral Administration
(§2) The pharmacokinetic parameters of the compounds according to the invention were determined in male Wistar rats and/or in female beagles and/or in cynomolgus monkeys and/or in male CD-1 mice. Intravenous administration in the case of mice and rats was carried out by means of a species-specific plasma/DMSO formulation, and in the case of dogs and monkeys by means of a water/PEG400/ethanol formulation. In all species, oral administration of the dissolved substance was performed via gavage, based on a water/PEG400/ethanol formulation.
(§3) An internal standard (which may also be a chemically unrelated substance) was added to the samples of the compounds of the invention, calibration samples and qualifiers, and there followed protein precipitation by means of acetonitrile in excess. Addition of a buffer solution matched to the LC conditions, and subsequent vortexing, was followed by centrifugation at 1000 g. The supernatant was analysed by LC-MS/MS using C18 reversed-phase columns and variable mobile phase mixtures. The substances were quantified via the peak heights or areas from extracted ion chromatograms of specific selected ion monitoring experiments.
(§4) The plasma concentration/time plots determined were used to calculate the pharmacokinetic parameters such as AUC, Cmax, t1/2 (terminal half-life), F (bioavailability), MRT (mean residence time) and CL (clearance), by means of a validated pharmacokinetic calculation program.
(§5) Since the substance quantification was performed in plasma, it was necessary to determine the blood/plasma distribution of the substance in order to be able to adjust the pharmacokinetic parameters correspondingly.
(§6) For this purpose, a defined amount of substance was incubated in K3 EDTA whole blood of the species in question in a rocking roller mixer for 20 min. After centrifugation at 1000 g, the plasma concentration was measured (by means of LC-MS/MS; see above) and determined by calculating the ratio of the Cblood/Cplasma value.

[3] = Pharmacokinetic parameters following intravenous and oral administration in dogs; assay type: in vivo, female beagles; conditions: for half-life: read-out: t½ (converted)
Description: as §1, §2, §3, §4, §5, §6

[4] = male, Wistar, rat, plasma, iv, intravenous administration
[5] = male, Wistar, rat, plasma, iv, intravenous administration, read-out: MRT
[6] = male, Wistar, rat, plasma, po, oral administration (p.o.), read-out: MRT
[7] = male, Wistar, rat, plasma, po, oral administration (p.o.)
[8] = female, beagle, dog, plasma, intravenous administration (i.v.)
[9] = female, beagle, dog, plasma, oral administration (p.o.)

pEC50 [1]	MEC (minimum effective concentration) [1]	AUCnorm ([2]; intravenous administration)	clearance [2, 4]	MRT [2, 5]	half-life [2, 4]	MRT [2, 6]	half-life [2, 7]	AUCnorm ([2]; oral administration (p.o.))	F ([2]; oral administration (p.o.))	SMILES	further results
8.04	2.3 nM	1.77 kg·h/L	9.33 mL/min/kg	2.24 h	1.64 h	6.28 h	3.24 h	0.57 kg·h/L	31.4%	CC(C)CN1CCN(c2ccc(-c3ccc(Cl)cc3N3CCCC(n4ncc(C(=O)O)c4C(F)F)C3)cc2)CC1 (single isomer, unassigned) [Example 1, 1-[1-{4-Chloro-4′-[4-(2-methylpropyl)piperazin-1-yl][1,1′-biphenyl]-2-yl}piperidin-3-yl]-5-(difluoromethyl)-1H-pyrazole-4-carboxylic acid hydrochloride]	–
8.49	0.3 nM	1.40 kg·h/L	12 mL/min/kg	2.62 h	2.09 h	5.91 h	3.02 h	0.84 kg·h/L	59.9%	CCCN1CCN(c2ccc(-c3ccc(Cl)cc3N3CCCC(n4ncc(C(=O)O)c4C(F)F)C3)cc2)CC1 (single isomer, unassigned) [Example 4, 1-{1-[4-Chloro-4′-(4-propylpiperazin-1-yl)[biphenyl]-2-yl]piperidin-3-yl}-5-(difluoromethyl)-1H-pyrazole-4-carboxylic acid hydrochloride]	–
8.44	<0.3 nM	1.23 kg·h/L	13.5 mL/min/kg	2.88 h	2.43 h	7.53 h	3.76 h	0.70 kg·h/L	58.2%	O=C(O)c1cnn(C2CCCN(c3cc(Cl)ccc3-c3ccc(N4CCN(CC5CC5)CC4)cc3)C2)c1C(F)F (single isomer, unassigned) [Example 5, 1-(1-{4-Chloro-4′-[4-(cyclopropylmethyl)piperazin-1-yl][biphenyl]-2-yl}piperidin-3-yl)-5-(difluoromethyl)-1H-pyrazole-4-carboxylic acid hydrochloride]	–
7.71	1.6 nM	2.29 kg·h/L	–	–	–	–	–	2.11 kg·h/L	91.7%	O=C(O)c1cnn(C2CCCN(c3cc(Cl)ccc3-c3ccc(N4CCN(CC(F)(F)F)CC4)cc3)C2)c1C(F)F (single isomer, unassigned) [Example 6, 1-[1-[5-Chloro-2-[4-[4-(2,2,2-trifluoroethyl)piperazin-1-yl]phenyl]phenyl]-3-piperidyl]-5-(difluoromethyl)pyrazole-4-carboxylic acid]	CLplasma ([2]; intravenous administration): 7.33 mL/min/kg; MRT ([2]; intravenous administration): 4.16 h; t½ ([2]; intravenous administration): 5.13 h; MRT ([2]; oral administration (p.o.)): 14.2 h; t½ ([2]; oral administration (p.o.)): 7.37 h
7.86	1.6 nM	7.23 kg·h/L	–	4.41 h	3.83 h	7.32 h	–	4.04 kg·h/L	56.1%	O=C(O)c1cnn(C2CCCN(c3cc(Cl)ccc3-c3ccc(N4CCN(CC(F)(F)F)CC4)cc3)C2)c1C(F)F (single isomer, unassigned) [Example 7, 1-[1-[5-Chloro-2-[4-[4-(2,2,2-trifluoroethyl)piperazin-1-yl]phenyl]phenyl]-3-piperidyl]-5-(difluoromethyl)pyrazole-4-carboxylic acid]	CLplasma ([2]; intravenous administration): 2.33 mL/min/kg; t½ ([2]; oral administration (p.o.)): 3.63 h
7.40	6.5 nM	–	–	–	–	–	–	–	–	CC(C)CN1CCN(c2ccc(-c3ccc(Cl)cc3N3CCCC(n4ncc(C(=O)O)c4C(F)(F)F)C3)cc2)CC1 (single isomer, unassigned) [Example 8, 1-[1-{4-Chloro-4′-[4-(2-methylpropyl)piperazin-1-yl][1,1′-biphenyl]-2-yl}piperidin-3-yl]-5-(trifluoromethyl)-1H-pyrazole-4-carboxylic acid]	–
7.99	2.0 nM	1.37 kg·h/L	12.2 mL/min/kg	2.39 h	1.89 h	4.04 h	3.41 h	0.52 kg·h/L	37.4%	O=C(O)c1cnn(C2CCCN(c3cc(Cl)ccc3-c3ccc(N4CCN(CC5CC5)CC4)cc3)C2)c1C(F)(F)F (single isomer, unassigned) [Example 10, 1-[1-[5-Chloro-2-[4-[4-(cyclopropylmethyl)piperazin-1-yl]phenyl]phenyl]-3-piperidyl]-5-(trifluoromethyl)pyrazole-4-carboxylic acid hydrochloride]	–
8.28	0.6 nM	–	–	–	–	–	–	–	–	O=C(O)c1cnn(C2CCCN(c3cc(Cl)ccc3-c3ccc(N4CCN(CC(F)(F)F)CC4)cc3)C2)c1C(F)(F)F (single isomer, unassigned) [Example 11, 1-[1-[5-Chloro-2-[4-[4-(2,2,2-trifluoroethyl)piperazin-1-yl]phenyl]phenyl]-3-piperidyl]-5-(trifluoromethyl)pyrazole-4-carboxylic acid]	–
–	–	0.77 kg·h/L	21.7 mL/min/kg	2.78 h	2.33 h	8.4 h	3.6 h	0.63 kg·h/L	81.8%	O=C(O)c1cnn(-c2cccc(-c3cc(Cl)ccc3-c3ccc(N4CCN(CC5CC5)CC4)cc3)n2)c1C(F)(F)F [Comparative Example 174 (WO2012/058132), reference compound]	MRT [3, 8]: 7.23 h; clearance ([3]; female, beagle, dog, plasma, intravenous administration (i.v.), read-out: CLplasma (converted)): 3.33 mL/min/kg; half-life [3, 8]: 10.8 h; MRT [3, 9]: 6.1 h; half-life [3, 9]: 7.05 h; AUCnorm ([3]; intravenous administration (i.v.)): 5.00 kg·h/L; AUCnorm ([3]; oral administration (p.o.)): 2.08 kg·h/L; F ([3]; oral administration (p.o.)): 41.6%
